Legend:
[1] = in vivo; cited from earlier work
[2] = test system: B cell subsets and T cells in spleen; experiment: Wild type mouse study: spleen immunophenotyping by flow cytometry; details: haloperidol 1 mg/kg
[3] = test system: total peripheral blood B-cells isolated from healthy donors; format: cell-based, human; details: clozapine 25-350 ng/ml, norclozapine 15-200 ng/ml, haloperidol 2-25 ng/ml; for Ability of differentiated ASCs to secrete antibody (total IgM/IgG ELISA): day 6 and day 9
Procedure: The experiment was performed from four independent donors.

[4] = test system: B cell subsets in bone marrow; experiment: Wild type mouse study: bone marrow B cell immunophenotyping by flow cytometry; details: haloperidol 1 mg/kg IP, 21 days

SMILES	LD50 [1]	Reduction of activated T cells (B220+TCR-b+) in spleen [2]	Impact on B cell subpopulations ([2]; comparator)	Functional or phenotypic maturation of activated B cells to an early PC state [3]	Ability of differentiated ASCs to secrete antibody (total IgM/IgG ELISA) [3]	Early developing B cell subsets in bone marrow (overall B, pre-pro B, pro-B) [4]	Effect on long-lived plasma cells in the bone marrow [4]
O=C(CCCN1CCC(O)(c2ccc(Cl)cc2)CC1)c1ccc(F)cc1 [Haloperidol, haloperidol]	30 mg/kg	modestly apparent	not observed	no consistent inhibitory effect	no consistent effect	no significant effect	no effect
Clc1ccc2c(c1)N=C(N1CCNCC1)c1ccccc1N2 [norclozapine]				no consistent inhibitory effect	no consistent effect		

— patent US20210236512A1 (ZARODEX THERAPEUTICS LIMITED, priority 2018, published 2021)
